Experimental data: the NIST ThermoML archive (doi:10.1016/j.jct.2005.11.009)

Conditions: Liquid, Transpiration method

CCCCCCCc1ccccc1 [heptylbenzene]
Conditions	vapor or sublimation pressure [kPa]
292.5 K	0.00286
294.5 K	0.00347
297.5 K	0.00455
300.4 K	0.00585
303.4 K	0.00761
306.4 K	0.00955
309.4 K	0.01227
312.4 K	0.01486
315.4 K	0.01959
318.2 K	0.02441
321.3 K	0.03085
323.4 K	0.03499
326.4 K	0.04342
328.4 K	0.04901
331.3 K	0.06114
333.5 K	0.06975
336.4 K	0.0845
338.5 K	0.09752
341.3 K	0.1139
343.5 K	0.1322
346.3 K	0.1552
348.5 K	0.1818
351.5 K	0.2197
353.5 K	0.2474

CCCCCCCCCCCc1ccccc1 [undecylbenzene]
Conditions	vapor or sublimation pressure [kPa]
313.2 K	0.00027
319.3 K	0.0005
323.3 K	0.00072
327.3 K	0.00104
331.3 K	0.00146
333.4 K	0.00176
338.4 K	0.00262
343.5 K	0.00413
348.7 K	0.00598
353.6 K	0.00906
358.7 K	0.01272
363.8 K	0.01807

CCCCCCCCCCc1ccccc1 [1-phenyldecane]
Conditions	vapor or sublimation pressure [kPa]
318.2 K	0.00122
323.2 K	0.00192
328.3 K	0.00293
333.5 K	0.0045
338.6 K	0.00655
343.7 K	0.00966
348.7 K	0.0144
353.3 K	0.0203
358.4 K	0.0288
363.4 K	0.0406

CCCCCc1ccccc1 [pentylbenzene]
Conditions	vapor or sublimation pressure [kPa]
284.5 K	0.0162
287.5 K	0.0218
290.4 K	0.0272
293.3 K	0.0333
293.4 K	0.0328
296.3 K	0.0427
298.3 K	0.0493
303.2 K	0.0706
306.3 K	0.0902
308.2 K	0.0998
311.2 K	0.1227
314.2 K	0.1487
317.3 K	0.1765
320.3 K	0.2193
323.2 K	0.2711
